≈ marks a conversion by molar mass, not a printed value. A value given as a limit tells only on which side of the number the result lay.

For one series, the system named is HCT-8. The series is described as follows: Cytotoxicity against human HCT-8 cells by MTT assay. Type of series: toxicity, cell-based.
Another series concerns Escherichia coli. The series is described as follows: Antibacterial activity against multi-drug resistant Escherichia coli B2 clinical isolate incubated for 18 hrs by broth microdilution method. Type of series: functional. Background: Dilution methods test growth across graded concentrations, often in twofold steps.
The test system of a further series is HGC-27. As to the kind of experiment: Cytotoxicity against human HGC-27 cells by MTT assay. Type of series: toxicity, cell-based.
A further series deals with Staphylococcus aureus. The series is described as follows: Antibacterial activity against methicillin-resistant Staphylococcus aureus T144 incubated for 18 hrs by broth microdilution method. Type of series: functional.
The test system of the next series is HepG2. As to the kind of experiment: Cytotoxicity against human HepG2 cells by MTT assay. Type of series: toxicity, cell-based.
In the next series the test system is Enterococcus faecalis. As to the kind of experiment: Antibacterial activity against vancomycin-resistant Enterococcus faecalis 10 incubated for 18 hrs by broth microdilution method. Type of series: functional.
The test system of another series is Pseudomonas aeruginosa. As to the kind of experiment: Antibacterial activity against wild-type Pseudomonas aeruginosa PAO1 incubated for 18 hrs by broth microdilution method. Type of series: functional.
The subject of a further series is PC-9. The series is described as follows: Cytotoxicity against human PC-9 cells by MTT assay. Type of series: toxicity, cell-based. In general terms: Tetrazolium assays rely on reduction of a dye to a coloured formazan, in cell work by metabolically active cells.
In the next series the test system is PANC-1. As to the kind of experiment: Cytotoxicity against human PANC-1 cells by MTT assay. Type of series: toxicity, cell-based.

In general, MIC refers to the lowest concentration found to suppress growth. A lower MIC goes with inhibition by little substance. `COC(=O)c1c(O)cc2c(c1C)C=C1c3c(cc(C)c(O)c3O2)OC1(C)C`: the Activity result with HCT-8, with HGC-27, in the series on HepG2, in the series on PC-9 and with PANC-1 was “Non-Toxic” throughout. For the same molecule, the MIC with Escherichia coli is more than 32 µg/mL; with Staphylococcus aureus, 16 µg/mL (≈ 43.4 µM); with Enterococcus faecalis it was 16 µg/mL (≈ 43.4 µM); in the series with Pseudomonas aeruginosa, more than 32 µg/mL.

Consider `COC(=O)c1c(OC)cc2c(c1C)C=C1c3c(cc(C)c(O)c3O2)OC1(C)C`, for which the Activity result with HCT-8, in the series with HGC-27, in the series with HepG2, in the series on PC-9 and with PANC-1 was “Non-Toxic” each time.

Turning to COLISTIN, the minimum inhibitory concentration (MIC) in the series with Escherichia coli is 2 µg/mL; with Pseudomonas aeruginosa it was 0.13 µg/mL.

With `COC(=O)c1c(OC)cc2c(c1C)[C@@H](C=C(C)C)C1=C(O2)C(=O)C(C)=CC1=O`, the Activity entry in the series on HCT-8, in the series on HGC-27, in the series on HepG2, with PC-9 and in the series on PANC-1 was “Non-Toxic” in each case. Besides, the MIC in the series with Escherichia coli was more than 32 µg/mL; in the series with Staphylococcus aureus, 32 µg/mL (≈ 83.7 µM); in the series with Enterococcus faecalis, 8 µg/mL (≈ 20.9 µM); against Pseudomonas aeruginosa it was more than 32 µg/mL.

For the molecule `COC(=O)c1c(OC)cc2c(c1C)[C@@H](C=C(C)C)c1c(O)cc(C)cc1O2`, the Activity result in the series on HCT-8, in the series with HGC-27, in the series with HepG2, in the series with PC-9 and with PANC-1 was “Non-Toxic” throughout. Further, the minimal inhibitory concentration (MIC) is more than 32 µg/mL against Escherichia coli, 4 µg/mL (≈ 10.9 µM) against Staphylococcus aureus, 4 µg/mL (≈ 10.9 µM) in the series with Enterococcus faecalis and more than 32 µg/mL in the series on Pseudomonas aeruginosa.

Molecule `CN[C@H](CC(C)C)C(=O)N[C@H]1C(=O)N[C@@H](CC(N)=O)C(=O)N[C@H]2C(=O)N[C@H]3C(=O)N[C@H](C(=O)N[C@H](C(=O)O)c4cc(O)cc(O)c4-c4cc3ccc4O)[C@H](O)c3ccc(c(Cl)c3)Oc3cc2cc(c3O[C@@H]2O[C@H](CO)[C@@H](O)[C@H](O)[C@H]2O[C@H]2C[C@](C)(N)[C@H](O)[C@H](C)O2)Oc2ccc(cc2Cl)[C@H]1O` [VANCOMYCIN] returned a minimum inhibitory concentration (MIC) in the series on Enterococcus faecalis of more than 128 µg/mL.

For the molecule `COC(=O)c1c(OC)cc2c(c1C)[C@@H](C=C(C)C)c1c(O)cc(C)c(OC)c1O2`, the Activity result with HCT-8, in the series with HGC-27, in the series on HepG2, in the series with PC-9 and in the series with PANC-1 was “Non-Toxic” throughout.

With `COC(=O)c1c(O)cc2c(c1C)[C@@H](C=C(C)C)C1=C(O2)C(=O)C(C)=CC1=O`, the Activity entry with HCT-8, in the series on HGC-27, with HepG2, in the series with PC-9 and with PANC-1 was “Non-Toxic” each time. For the same molecule, the MIC is more than 32 µg/mL in the series with Escherichia coli, more than 32 µg/mL in the series on Staphylococcus aureus, 8 µg/mL (≈ 21.7 µM) with Enterococcus faecalis and more than 32 µg/mL in the series with Pseudomonas aeruginosa.

With `COC(=O)c1c(O)cc2c(c1C)[C@@H](C=C(C)C)c1c(O)cc(C)cc1O2`, the Activity entry with HCT-8, in the series with HGC-27, in the series on HepG2, in the series on PC-9 and in the series with PANC-1 was “Non-Toxic” each time. Besides, the MIC was more than 32 µg/mL in the series on Escherichia coli, 16 µg/mL (≈ 45.1 µM) with Staphylococcus aureus, 8 µg/mL (≈ 22.6 µM) against Enterococcus faecalis and more than 32 µg/mL against Pseudomonas aeruginosa.

As for `COC(=O)c1c(OC)cc2c(c1C)[C@H](OC)[C@H]1c3c(cc(C)c(O)c3O2)OC1(C)C`, the Activity result in the series on HCT-8, with HGC-27, with HepG2, with PC-9 and with PANC-1 was “Non-Toxic” each time.

For the molecule `CC(C)=C[C@H]1c2c(O)cc(C)cc2Oc2cc(O)c(C(=O)O)c(C)c21`, the Activity result with HCT-8, in the series on HGC-27, in the series with HepG2, in the series on PC-9 and in the series with PANC-1 was “Non-Toxic” each time. Besides, the MIC was more than 32 µg/mL with Escherichia coli, 16 µg/mL (≈ 47 µM) in the series on Staphylococcus aureus, 16 µg/mL (≈ 47 µM) in the series with Enterococcus faecalis and more than 32 µg/mL in the series on Pseudomonas aeruginosa.

`COC(=O)c1c(OC)cc2c(c1C)[C@H](O)[C@H]1c3c(cc(C)c(O)c3O2)OC1(C)C`: the Activity result in the series on HCT-8, in the series on HGC-27, in the series on HepG2, in the series on PC-9 and with PANC-1 was “Non-Toxic” in each case.
